# Calls of active or inactive are those of the source. The rule behind the calls is not given here.
# Columns and labels:
# Type in all cases: functional, organism-based
# [1] = test system: SARS-CoV-2; experiment: Antiviral activity against activity SARS-CoV-2 infected in human A549-ACE2 cells assessed as inhibition of viral replication pretreated with cells for 1 hrs followed by viral infected for 2 hrs and replacement with fresh medium containing compounds and measured 48 hrs post infection; conditions: Severe acute respiratory syndrome coronavirus 2, A549-ACE2
# [2] = test system: SARS-CoV-2; conditions: Severe acute respiratory syndrome coronavirus 2; MA10; dose 10.0 mg/kg, route ip, time 36.0 hrs
# [3] = test system: Mus musculus; conditions: CD-1, dose 10.0 mg/kg, route ip, time 36.0 hrs
# [4] = test system: Mus musculus; conditions: CD-1, dose 10.0 mg/kg, route ip, time 36.0 hrs; remark: listed apart in the source
smiles,measurement,setting,value
CCN(CCN)c1ccc(Nc2cc(NC3CC3)n3ncc(C#N)c3n2)cc1-n1cnnc1,IC50,[1],0.39 µM
same,Activity,[2],inactive
same,inhibition,[3],inactive
same,inhibition,[4],inactive

# Source: ChEMBL document CHEMBL5500423, “More than an Amide Bioisostere: Discovery of 1,2,4-Triazole-containing Pyrazolo[1,5-a]pyrimidine Host CSNK2 Inhibitors for Combatting β-Coronavirus Replication” (J Med Chem, 2024)
